Experimental data published in article PMC2813745, “A novel inhibitor of the PI3K/Akt pathway based on the structure of inositol 1,3,4,5,6-pentakisphosphate” (British Journal of Cancer, 2010).

Legend:
Assay type in all cases: biochemical
CDK5/p35 = CDK5/p35 (Homo sapiens, UniProt Q00535); experiment: SelectScreen kinase profiling: CDK5/p35; conditions: [ATP] 10 µM
Experimental: (§1) Effect of the indicated compounds on the activity of various kinases was assessed by SelectScreen Kinase Profiling Service (Invitrogen-Life Technologies, Paisley, UK). Assays were performed using 1 μM of the tested compounds and ATP concentration as indicated in the corresponding tables. In the case of […] a screen using 10 μM of the compound was also carried out, as indicated in the corresponding table.

Akt1 (PKBα) = Akt1 (PKBα) (Homo sapiens, UniProt P31749); experiment: SelectScreen kinase profiling: Akt1; conditions: 10-point titration; [ATP] 75 μM
Experimental: Effect of the indicated compounds on the activity of various kinases was assessed by SelectScreen Kinase Profiling Service (Invitrogen-Life Technologies, Paisley, UK). […] In the case of […] a screen using 10 μM of the compound was also carried out, as indicated in the corresponding table.

GSK3A (GSK3α) = GSK3A (GSK3α) (Homo sapiens, UniProt P49840); experiment: SelectScreen kinase profiling: GSK3A; conditions: [ATP] 10 µM
Experimental: as §1

PRKCB1 (PKCβI) = PRKCB1 (PKCβI) (Homo sapiens, UniProt P05771); experiment: SelectScreen kinase profiling: PRKCB1; conditions: [ATP] 200 µM
Experimental: as §1

MAPK14 (p38α) = MAPK14 (p38α) (Homo sapiens, UniProt Q16539); experiment: SelectScreen kinase profiling: MAPK14; conditions: 1 µM compound; [ATP] 100 µM
Experimental: as §1

CSNK1A1 (CK1α1) = CSNK1A1 (CK1α1) (Homo sapiens, UniProt P48729); experiment: SelectScreen kinase profiling: CSNK1A1; conditions: [ATP] 5 µM
Experimental: as §1

ITK = ITK (Homo sapiens, UniProt Q08881); experiment: SelectScreen kinase profiling: ITK; conditions: [ATP] 5 µM
ITK, sequence (Q08881 whole entry): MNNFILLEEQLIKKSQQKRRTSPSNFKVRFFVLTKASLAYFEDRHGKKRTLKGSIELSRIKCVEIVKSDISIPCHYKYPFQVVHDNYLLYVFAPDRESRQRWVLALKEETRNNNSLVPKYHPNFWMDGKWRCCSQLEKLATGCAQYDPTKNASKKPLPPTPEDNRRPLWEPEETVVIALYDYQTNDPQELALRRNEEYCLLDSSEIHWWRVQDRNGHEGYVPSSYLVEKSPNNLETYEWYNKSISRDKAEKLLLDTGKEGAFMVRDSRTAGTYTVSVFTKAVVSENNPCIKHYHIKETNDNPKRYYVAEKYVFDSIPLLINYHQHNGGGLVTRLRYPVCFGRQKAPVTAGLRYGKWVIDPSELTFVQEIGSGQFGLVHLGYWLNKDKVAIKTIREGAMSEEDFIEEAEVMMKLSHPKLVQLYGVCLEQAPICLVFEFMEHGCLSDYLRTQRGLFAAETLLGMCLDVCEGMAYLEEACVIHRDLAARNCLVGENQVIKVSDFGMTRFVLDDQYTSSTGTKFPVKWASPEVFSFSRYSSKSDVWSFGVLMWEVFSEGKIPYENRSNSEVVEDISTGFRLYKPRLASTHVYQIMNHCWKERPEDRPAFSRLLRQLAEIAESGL
Experimental: as §1

BRAF = BRAF (Homo sapiens, UniProt P15056); experiment: SelectScreen kinase profiling: BRAF; conditions: [ATP] 100 µM
Experimental: as §1

[1] = target: PIK3CA/PIK3R1(p110α/p85α) (Homo sapiens, UniProt P42336); experiment: SelectScreen kinase profiling: PIK3CA/PIK3R1; conditions: [ATP] 25 µM
Experimental: as §1

SRC = SRC (Homo sapiens, UniProt P12931); experiment: SelectScreen kinase profiling: SRC; conditions: [ATP] 50 µM
Experimental: as §1

MAPK3 (ERK1) = MAPK3 (ERK1) (Homo sapiens, UniProt P27361); experiment: SelectScreen kinase profiling: MAPK3; conditions: [ATP] 50 µM
MAPK3 (ERK1), sequence (P27361 whole entry): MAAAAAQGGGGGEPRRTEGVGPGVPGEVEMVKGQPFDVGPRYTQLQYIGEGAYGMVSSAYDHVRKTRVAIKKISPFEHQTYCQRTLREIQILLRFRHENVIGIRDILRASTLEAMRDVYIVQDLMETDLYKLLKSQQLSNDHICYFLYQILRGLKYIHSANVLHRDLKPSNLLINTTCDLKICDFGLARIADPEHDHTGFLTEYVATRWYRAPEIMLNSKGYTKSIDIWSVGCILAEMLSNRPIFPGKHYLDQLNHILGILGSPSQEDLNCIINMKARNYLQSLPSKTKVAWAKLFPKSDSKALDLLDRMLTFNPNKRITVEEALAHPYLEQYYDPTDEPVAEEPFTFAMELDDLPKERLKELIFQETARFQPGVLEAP
Experimental: as §1

CDK9/cyclin T1 = CDK9/cyclin T1 (Homo sapiens, UniProt P50750); experiment: SelectScreen kinase profiling: CDK9/cyclin T1; conditions: [ATP] 25 µM
CDK9/cyclin T1, sequence (P50750 whole entry): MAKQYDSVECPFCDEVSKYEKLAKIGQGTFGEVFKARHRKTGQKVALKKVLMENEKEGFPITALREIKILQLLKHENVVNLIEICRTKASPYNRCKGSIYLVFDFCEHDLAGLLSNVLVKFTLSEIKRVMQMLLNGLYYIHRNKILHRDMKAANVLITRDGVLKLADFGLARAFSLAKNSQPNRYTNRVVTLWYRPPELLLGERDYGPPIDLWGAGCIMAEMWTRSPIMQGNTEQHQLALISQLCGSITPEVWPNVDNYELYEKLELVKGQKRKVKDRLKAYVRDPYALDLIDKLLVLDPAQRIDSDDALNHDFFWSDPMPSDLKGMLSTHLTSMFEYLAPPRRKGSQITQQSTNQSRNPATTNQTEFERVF
CDK9/cyclin T1, sequence (O60563 whole entry partner): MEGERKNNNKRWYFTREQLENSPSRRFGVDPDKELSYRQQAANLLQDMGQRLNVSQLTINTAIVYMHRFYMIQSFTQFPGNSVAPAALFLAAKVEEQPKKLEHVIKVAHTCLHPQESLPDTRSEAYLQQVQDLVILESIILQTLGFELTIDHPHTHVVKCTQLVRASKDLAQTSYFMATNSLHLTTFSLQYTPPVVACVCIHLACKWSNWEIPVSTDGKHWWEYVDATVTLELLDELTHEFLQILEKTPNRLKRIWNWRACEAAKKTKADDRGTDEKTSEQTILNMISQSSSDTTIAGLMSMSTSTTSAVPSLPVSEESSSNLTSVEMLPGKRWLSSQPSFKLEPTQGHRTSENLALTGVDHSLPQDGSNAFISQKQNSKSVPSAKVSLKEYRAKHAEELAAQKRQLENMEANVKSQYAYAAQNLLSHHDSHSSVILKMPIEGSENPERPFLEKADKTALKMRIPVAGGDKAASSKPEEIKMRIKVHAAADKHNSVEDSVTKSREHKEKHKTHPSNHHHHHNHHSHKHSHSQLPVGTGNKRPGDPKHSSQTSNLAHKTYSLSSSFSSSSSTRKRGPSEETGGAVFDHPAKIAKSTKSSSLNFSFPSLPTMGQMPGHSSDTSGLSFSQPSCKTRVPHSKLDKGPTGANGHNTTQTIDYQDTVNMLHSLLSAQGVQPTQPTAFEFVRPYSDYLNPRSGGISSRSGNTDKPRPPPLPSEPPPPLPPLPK
Experimental: as §1

CHEK1 (CHK1) = CHEK1 (CHK1) (Homo sapiens, UniProt O14757); experiment: SelectScreen kinase profiling: CHEK1; conditions: [ATP] 50 µM
CHEK1 (CHK1), sequence (O14757 whole entry): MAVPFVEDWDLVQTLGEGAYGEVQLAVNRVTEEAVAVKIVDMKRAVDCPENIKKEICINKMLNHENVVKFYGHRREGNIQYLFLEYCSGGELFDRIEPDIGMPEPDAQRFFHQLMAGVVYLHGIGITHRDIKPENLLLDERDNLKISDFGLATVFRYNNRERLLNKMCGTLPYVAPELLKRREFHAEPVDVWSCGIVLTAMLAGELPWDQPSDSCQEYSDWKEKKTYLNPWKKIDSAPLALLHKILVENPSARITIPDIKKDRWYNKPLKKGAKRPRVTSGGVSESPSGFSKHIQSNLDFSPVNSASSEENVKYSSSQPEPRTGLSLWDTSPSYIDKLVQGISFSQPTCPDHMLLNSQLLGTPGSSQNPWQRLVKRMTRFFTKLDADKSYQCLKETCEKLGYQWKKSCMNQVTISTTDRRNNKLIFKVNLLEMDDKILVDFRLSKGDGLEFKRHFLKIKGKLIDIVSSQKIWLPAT
Experimental: as §1

CHUK (IKKα) = CHUK (IKKα) (Homo sapiens, UniProt O15111); experiment: SelectScreen kinase profiling: CHUK; conditions: [ATP] 10 µM
Experimental: as §1

CDK2/cyclin A = CDK2/cyclin A (Homo sapiens, UniProt P24941); experiment: SelectScreen kinase profiling: CDK2/cyclin A; conditions: [ATP] 25 µM
Experimental: as §1

MAPK8 (JNK1) = MAPK8 (JNK1) (Homo sapiens, UniProt P45983); experiment: SelectScreen kinase profiling: MAPK8; conditions: [ATP] 100 µM
Experimental: as §1

MAPK1 (ERK2) = MAPK1 (ERK2) (Homo sapiens, UniProt P28482); experiment: SelectScreen kinase profiling: MAPK1; conditions: [ATP] 100 µM
Experimental: as §1

IKBKB (IKKβ) = IKBKB (IKKβ) (Homo sapiens, UniProt O14920); experiment: SelectScreen kinase profiling: IKBKB; conditions: 1 µM compound; [ATP] 5 µM
Experimental: as §1

AMPK A1/B1/G1 = AMPK A1/B1/G1 (Homo sapiens, UniProt Q13131); experiment: SelectScreen kinase profiling: AMPK A1/B1/G1; conditions: 1 µM compound; [ATP] 50 µM
AMPK A1/B1/G1, sequence (Q13131 whole entry): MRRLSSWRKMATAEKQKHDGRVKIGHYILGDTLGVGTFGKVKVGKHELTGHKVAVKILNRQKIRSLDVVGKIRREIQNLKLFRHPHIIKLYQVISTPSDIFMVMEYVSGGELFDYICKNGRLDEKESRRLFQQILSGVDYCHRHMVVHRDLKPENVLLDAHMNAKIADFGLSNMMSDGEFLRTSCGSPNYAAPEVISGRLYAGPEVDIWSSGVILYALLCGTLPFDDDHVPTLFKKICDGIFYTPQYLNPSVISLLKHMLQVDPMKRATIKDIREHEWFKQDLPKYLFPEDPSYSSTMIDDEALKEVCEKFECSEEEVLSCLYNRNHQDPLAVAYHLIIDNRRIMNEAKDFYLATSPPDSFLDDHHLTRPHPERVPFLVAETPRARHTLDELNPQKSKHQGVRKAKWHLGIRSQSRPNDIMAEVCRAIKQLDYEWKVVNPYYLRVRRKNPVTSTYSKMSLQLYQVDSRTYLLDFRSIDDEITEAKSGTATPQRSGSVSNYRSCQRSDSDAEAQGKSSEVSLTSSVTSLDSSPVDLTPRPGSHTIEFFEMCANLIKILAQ
AMPK A1/B1/G1, sequence (Q9Y478 whole entry partner): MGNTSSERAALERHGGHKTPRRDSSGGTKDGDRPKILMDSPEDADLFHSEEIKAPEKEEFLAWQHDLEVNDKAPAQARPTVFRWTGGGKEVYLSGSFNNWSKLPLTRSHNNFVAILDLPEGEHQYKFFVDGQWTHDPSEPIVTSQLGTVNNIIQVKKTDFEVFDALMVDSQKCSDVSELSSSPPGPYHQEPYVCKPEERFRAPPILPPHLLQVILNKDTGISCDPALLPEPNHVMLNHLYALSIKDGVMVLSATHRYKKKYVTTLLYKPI
AMPK A1/B1/G1, sequence (P54619 whole entry partner): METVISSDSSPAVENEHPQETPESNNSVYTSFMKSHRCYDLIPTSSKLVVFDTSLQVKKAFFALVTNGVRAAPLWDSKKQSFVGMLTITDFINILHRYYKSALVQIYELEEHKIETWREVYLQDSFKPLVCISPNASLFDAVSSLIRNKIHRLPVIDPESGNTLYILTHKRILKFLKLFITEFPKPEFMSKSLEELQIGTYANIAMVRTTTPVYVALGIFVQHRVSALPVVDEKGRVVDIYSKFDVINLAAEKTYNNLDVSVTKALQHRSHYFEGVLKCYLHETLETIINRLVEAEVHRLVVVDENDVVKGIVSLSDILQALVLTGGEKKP
Experimental: as §1

PDK1 = target: T1, PDK1 (Homo sapiens, UniProt O15530); experiment: SelectScreen kinase profiling: PDK1; conditions: for IC50: 10-point titration, [ATP] 100 μM
T1 sequence (O15530 1-556): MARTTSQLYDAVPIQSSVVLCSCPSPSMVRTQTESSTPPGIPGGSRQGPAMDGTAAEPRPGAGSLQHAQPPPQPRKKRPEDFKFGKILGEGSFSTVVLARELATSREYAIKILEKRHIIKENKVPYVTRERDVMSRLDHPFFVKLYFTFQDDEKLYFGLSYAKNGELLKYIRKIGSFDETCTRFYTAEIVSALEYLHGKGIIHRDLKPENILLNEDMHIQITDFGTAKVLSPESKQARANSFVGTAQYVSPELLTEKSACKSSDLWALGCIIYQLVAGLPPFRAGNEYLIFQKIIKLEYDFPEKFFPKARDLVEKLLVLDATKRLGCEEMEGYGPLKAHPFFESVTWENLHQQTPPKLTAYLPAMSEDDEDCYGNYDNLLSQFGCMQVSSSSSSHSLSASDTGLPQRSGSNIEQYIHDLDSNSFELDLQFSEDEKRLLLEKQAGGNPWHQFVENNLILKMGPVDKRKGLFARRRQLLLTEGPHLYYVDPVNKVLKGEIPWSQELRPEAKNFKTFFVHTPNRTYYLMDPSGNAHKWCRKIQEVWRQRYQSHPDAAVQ
Experimental: as §1

AKT2 (PKBβ) = AKT2 (PKBβ) (Homo sapiens, UniProt P31751); experiment: SelectScreen kinase profiling: AKT2; conditions: for IC50: 10-point titration, [ATP] 200 μM
AKT2 (PKBβ), sequence (P31751 whole entry): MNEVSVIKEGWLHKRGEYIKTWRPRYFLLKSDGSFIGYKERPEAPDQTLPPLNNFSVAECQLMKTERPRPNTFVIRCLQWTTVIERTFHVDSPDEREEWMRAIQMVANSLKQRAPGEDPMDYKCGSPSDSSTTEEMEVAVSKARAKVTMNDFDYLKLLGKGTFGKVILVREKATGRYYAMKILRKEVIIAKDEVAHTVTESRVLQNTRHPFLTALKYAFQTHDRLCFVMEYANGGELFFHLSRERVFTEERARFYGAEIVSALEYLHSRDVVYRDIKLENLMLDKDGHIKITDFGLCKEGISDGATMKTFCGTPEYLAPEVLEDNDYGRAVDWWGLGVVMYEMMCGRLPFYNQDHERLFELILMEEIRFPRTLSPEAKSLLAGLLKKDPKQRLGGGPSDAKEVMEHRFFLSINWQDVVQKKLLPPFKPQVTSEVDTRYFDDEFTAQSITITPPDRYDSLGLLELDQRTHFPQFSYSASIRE
Experimental: as §1

CAMK2A (CaMKII alpha) = CAMK2A (CaMKII alpha) (Homo sapiens, UniProt Q9UQM7); experiment: SelectScreen kinase profiling: CAMK2A; conditions: [ATP] 10 µM
Experimental: as §1

[2] = target: PIK3CD/PIK3R1(p110δ/p85α) (Homo sapiens, UniProt O00329); experiment: SelectScreen kinase profiling: PIK3CD/PIK3R1; conditions: [ATP] 25 µM
Experimental: as §1

CSNK1G1 (CK1γ1) = CSNK1G1 (CK1γ1) (Homo sapiens, UniProt Q9HCP0); experiment: SelectScreen kinase profiling: CSNK1G1; conditions: [ATP] 5 µM
Experimental: as §1

[3] = 1 µM compound, [ATP] 100 µM, single point

CDK5/p35, sequence (Q00535 whole entry): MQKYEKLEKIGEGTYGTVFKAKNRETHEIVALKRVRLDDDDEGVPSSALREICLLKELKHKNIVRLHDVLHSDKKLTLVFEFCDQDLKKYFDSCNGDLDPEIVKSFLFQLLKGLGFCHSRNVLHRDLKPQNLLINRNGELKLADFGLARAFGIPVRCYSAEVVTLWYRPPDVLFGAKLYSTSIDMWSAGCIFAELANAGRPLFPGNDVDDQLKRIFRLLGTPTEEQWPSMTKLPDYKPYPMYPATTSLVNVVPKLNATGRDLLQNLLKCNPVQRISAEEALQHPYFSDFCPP
CDK5/p35, sequence (Q15078 whole entry partner): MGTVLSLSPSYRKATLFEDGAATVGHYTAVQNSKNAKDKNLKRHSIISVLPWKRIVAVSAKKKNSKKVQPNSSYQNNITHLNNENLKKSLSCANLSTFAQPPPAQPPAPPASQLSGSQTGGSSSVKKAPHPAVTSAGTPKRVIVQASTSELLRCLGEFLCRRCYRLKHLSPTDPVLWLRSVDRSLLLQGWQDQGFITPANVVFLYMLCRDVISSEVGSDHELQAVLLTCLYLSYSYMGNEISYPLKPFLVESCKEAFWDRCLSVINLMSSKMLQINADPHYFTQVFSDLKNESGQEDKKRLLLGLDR

Structure (SMILES): O=P(O)(O)OC1C(OCc2ccccc2)C(OP(=O)(O)O)C(OP(=O)(O)O)C(OP(=O)(O)O)C1OP(=O)(O)O (centres unmarked) [2-O-Bn-InsP5, 2-O-benzyl-myo-inositol 1,3,4,5,6-pentakisphosphate]
- inhibition at 1 µM (CDK5/p35; 1 µM compound): 2%
- IC50 (Akt1 (PKBα)): > 100 µM
- inhibition at 1 µM (GSK3A (GSK3α); 1 µM compound): 3%
- inhibition at 1 µM (PRKCB1 (PKCβI); 1 µM compound): 11%
- inhibition at 1 µM (MAPK14 (p38α)): 30%
- inhibition at 1 µM (CSNK1A1 (CK1α1); 1 µM compound): 0%
- inhibition at 1 µM (ITK; 1 µM compound): -11%
- inhibition at 1 µM (BRAF; 1 µM compound): 5%
- inhibition at 1 µM ([1]; 1 µM compound): 2%
- inhibition at 1 µM (SRC; 1 µM compound): 4%
- inhibition at 1 µM (MAPK3 (ERK1); 1 µM compound): 19%
- inhibition at 1 µM (CDK9/cyclin T1; 1 µM compound): -11%
- inhibition at 1 µM (CHEK1 (CHK1); 1 µM compound): 15%
- inhibition at 1 µM (CHUK (IKKα); 1 µM compound): -2%
- inhibition at 1 µM (CDK2/cyclin A; 1 µM compound): 2%
- inhibition at 1 µM (MAPK8 (JNK1); 1 µM compound): 24%
- inhibition at 1 µM (MAPK1 (ERK2); 1 µM compound): 6%
- inhibition at 1 µM (IKBKB (IKKβ)): 13%
- inhibition at 1 µM (AMPK A1/B1/G1): 16%
- inhibition at 1 µM (PDK1; [3]): 79%
- IC50 (PDK1): 0.0265 µM
- inhibition at 1 µM (AKT2 (PKBβ); 1 µM compound, [ATP] 200 µM): 16%
- IC50 (AKT2 (PKBβ)): 77 µM
- inhibition at 1 µM (CAMK2A (CaMKII alpha); 1 µM compound): -2%
- inhibition at 1 µM ([2]; 1 µM compound): 6%
- inhibition at 1 µM (CSNK1G1 (CK1γ1); 1 µM compound): 7%

Structure (SMILES): O=P(O)(O)OC1C(O)C(OP(=O)(O)O)C(OP(=O)(O)O)C(OP(=O)(O)O)C1OP(=O)(O)O (centres unmarked) [InsP5, inositol 1,3,4,5,6-pentakisphosphate]
- inhibition at 10 µM (CDK5/p35; 10 µM compound): 5%
- IC50 (Akt1 (PKBα)): > 100 µM
- inhibition at 10 µM (GSK3A (GSK3α); 10 µM compound): 15%
- inhibition at 10 µM (PRKCB1 (PKCβI); 10 µM compound): 17%
- inhibition at 1 µM (MAPK14 (p38α)): 23%
- inhibition at 10 µM (CSNK1A1 (CK1α1); 10 µM compound): 13%
- inhibition at 10 µM (ITK; 10 µM compound): 6%
- inhibition at 10 µM (BRAF; 10 µM compound): 10%
- inhibition at 10 µM ([1]; 10 µM compound): 5%
- inhibition at 10 µM (SRC; 10 µM compound): 10%
- inhibition at 10 µM (MAPK3 (ERK1); 10 µM compound): 3%
- inhibition at 10 µM (CDK9/cyclin T1; 10 µM compound): 1%
- inhibition at 10 µM (CHEK1 (CHK1); 10 µM compound): 17%
- inhibition at 10 µM (CHUK (IKKα); 10 µM compound): 3%
- inhibition at 10 µM (CDK2/cyclin A; 10 µM compound): 9%
- inhibition at 10 µM (MAPK8 (JNK1); 10 µM compound): 14%
- inhibition at 10 µM (MAPK1 (ERK2); 10 µM compound): 8%
- inhibition at 1 µM (IKBKB (IKKβ)): 1%
- inhibition at 1 µM (AMPK A1/B1/G1): 4%
- % Inhibition Mean (PDK1; [3]): 68%
- inhibition at 1 µM (PDK1; [3]): 71%
- inhibition at 10 µM (PDK1; 10 µM compound, [ATP] 100 µM): 70%
- IC50 (PDK1): 0.613 µM
- IC50 (AKT2 (PKBβ)): 38.3 µM
- inhibition at 10 µM (CAMK2A (CaMKII alpha); 10 µM compound): 17%
- inhibition at 10 µM ([2]; 10 µM compound): -2%
- inhibition at 10 µM (CSNK1G1 (CK1γ1); 10 µM compound): 13%
